Data taken from publication PMC11053151, “Anti-inflammatory and anti-diabetic properties of indanone derivative isolated from Fernandoa adenophylla in vitro and in silico studies” (Scientific Reports, 2024).
pIC50: −log10 of the molar value.

Legend:
[1] = target: T1, α-amylase (porcine pancreatic amylase) (Sus scrofa, UniProt P00690); assay: starch hydrolysis / dinitrosalicylate colorimetric alpha-amylase inhibition assay; percent inhibition at […] µg; assay type: biochemical
T1 construct: gene AMY2
T1 sequence (P00690 16-511): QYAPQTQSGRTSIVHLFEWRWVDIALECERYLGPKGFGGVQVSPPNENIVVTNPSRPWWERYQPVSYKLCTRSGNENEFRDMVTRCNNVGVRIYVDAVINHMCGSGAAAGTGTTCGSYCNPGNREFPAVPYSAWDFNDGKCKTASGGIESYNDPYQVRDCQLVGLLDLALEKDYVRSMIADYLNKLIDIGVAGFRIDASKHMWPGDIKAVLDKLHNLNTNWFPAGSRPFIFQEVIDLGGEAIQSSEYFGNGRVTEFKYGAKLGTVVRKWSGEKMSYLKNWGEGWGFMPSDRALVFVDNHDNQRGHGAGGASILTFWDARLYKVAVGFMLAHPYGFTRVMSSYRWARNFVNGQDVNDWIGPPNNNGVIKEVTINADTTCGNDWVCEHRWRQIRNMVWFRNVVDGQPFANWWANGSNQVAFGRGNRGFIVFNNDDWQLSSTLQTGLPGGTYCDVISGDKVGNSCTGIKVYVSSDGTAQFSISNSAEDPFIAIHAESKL

[2] = target: T1, α-amylase (porcine pancreatic amylase); assay: starch hydrolysis / dinitrosalicylate colorimetric alpha-amylase inhibition assay; assay type: biochemical

SMILES	% [1] [%]	pIC50 [2]
C[C@H]1O[C@H](O[C@H]2[C@H](O)[C@@H](O)[C@@H](O[C@H]3[C@H](O)[C@@H](O)C(O)O[C@@H]3CO)O[C@@H]2CO)[C@H](O)[C@@H](O)[C@@H]1N[C@H]1C=C(CO)[C@@H](O)[C@H](O)[C@H]1O (some centres unmarked) [acarbose]	87.08 ± 1.328	–
COC(=O)[C@@]1(O)c2ccccc2C(=O)[C@]1(O)CC=C(C)C [indanone derivative, methyl (1R trans, 2S trans)-1,2-dihydroxy-2-(3-methylbut-2-en-1-yl)-3-oxo-2,3-dihydro-1H-indene-1-carboxylate]	–	4.33
